From patent US11827636B2, “Degradation of cyclin-dependent kinase 8 (CDK8) by conjugation of CDK8 inhibitors with E3 ligase ligand and methods of use” (DANA-FARBER CANCER INSTITUTE, INC., priority 2016, dated 2023)

What was measured:
Type in all cases: cell-based
[1] = system: pS727-STAT1; assay: Western blot, pS727-STAT1 level in wild-type (WT) Molt4 cells; conditions: 1 μM compound, 6 hours
Procedure: (§1) Cells are treated with a control or a bifunctional compound of the application alone or in combination with an agent that blocks proteasomal degradation at a single concentration or various concentrations. After treatment, cells are washed and harvested by resuspending in buffer and lysed on ice 30 minutes. Lysates are then cleared by centrifugation. Samples are boiled and equal amount of protein is loaded onto polyacrylamide gel. The gel is transferred to nitrocellulose and blotted for CDK8, mTOR, STAT1 serine 727 phosphorylation or actin.
(§2) The indicated cells were treated with vehicle control or the bifunctional compounds of the application, at a single or various concentrations, alone or in combination with bortezomib, an agent that blocks proteasomal degradation. After treatment, cells were washed with PBS and lysed in lysis buffer and then cleared by centrifugation. Protein concentrations were determined by BCA assay, and equal amounts of protein were loaded onto gels to perform Western blots. Gels were transferred to nitrocellulose, blocked with 5% milk in TBS-T, and probed for CDK8, mTOR, S727-STAT1, and Actin. Antibody binding was detected using near-infrared-dye-conjugated secondary antibodies.

[2] = biological target: T1, CDK8 (Homo sapiens, UniProt P49336); assay: Enzyme degradation assay (western blot), CDK8 level in wild-type (WT) Molt4 cells; conditions: 1 μM compound, 6 hours
T1 construct: endogenous in cells; host or cells: wild-type Molt4 cells
T1 sequence (P49336 whole entry): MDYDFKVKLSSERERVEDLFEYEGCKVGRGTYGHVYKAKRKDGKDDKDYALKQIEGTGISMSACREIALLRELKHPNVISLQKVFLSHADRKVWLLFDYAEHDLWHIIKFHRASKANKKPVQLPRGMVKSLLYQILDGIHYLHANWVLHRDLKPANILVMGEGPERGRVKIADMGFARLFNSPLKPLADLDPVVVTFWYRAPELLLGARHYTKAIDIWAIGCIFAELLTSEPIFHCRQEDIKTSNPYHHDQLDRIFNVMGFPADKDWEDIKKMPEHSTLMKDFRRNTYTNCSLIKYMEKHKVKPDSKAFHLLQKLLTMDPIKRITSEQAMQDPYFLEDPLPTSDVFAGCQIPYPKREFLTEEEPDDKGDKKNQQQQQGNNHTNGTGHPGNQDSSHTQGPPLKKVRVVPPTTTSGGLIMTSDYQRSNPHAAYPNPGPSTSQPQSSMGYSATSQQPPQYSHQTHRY
T1 sequence (P24863 whole entry partner): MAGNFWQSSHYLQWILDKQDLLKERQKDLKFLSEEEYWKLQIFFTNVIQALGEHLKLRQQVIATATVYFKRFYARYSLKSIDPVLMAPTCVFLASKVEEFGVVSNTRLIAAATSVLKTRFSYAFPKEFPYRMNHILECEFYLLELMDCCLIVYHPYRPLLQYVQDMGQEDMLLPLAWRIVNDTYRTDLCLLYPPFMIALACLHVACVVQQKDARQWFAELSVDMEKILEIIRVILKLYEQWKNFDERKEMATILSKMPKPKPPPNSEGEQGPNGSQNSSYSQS
T1 sequence (Q96SW2 whole entry partner): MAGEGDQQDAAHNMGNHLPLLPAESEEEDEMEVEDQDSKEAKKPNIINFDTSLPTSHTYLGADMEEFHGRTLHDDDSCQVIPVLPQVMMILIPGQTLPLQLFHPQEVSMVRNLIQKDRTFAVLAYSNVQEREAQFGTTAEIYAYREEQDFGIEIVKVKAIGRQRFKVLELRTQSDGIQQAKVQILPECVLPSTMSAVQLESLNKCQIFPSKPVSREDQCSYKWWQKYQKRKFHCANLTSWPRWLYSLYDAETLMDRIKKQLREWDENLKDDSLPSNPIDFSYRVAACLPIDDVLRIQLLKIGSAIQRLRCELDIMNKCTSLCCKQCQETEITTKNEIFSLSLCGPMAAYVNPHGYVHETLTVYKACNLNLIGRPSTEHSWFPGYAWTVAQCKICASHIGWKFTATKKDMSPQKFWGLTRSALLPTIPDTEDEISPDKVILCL
Procedure: as §1, §2

[3] = system: pS727-STAT1; assay: Western blot, pS727-STAT1 level in MC38 colorectal cancer cells; conditions: 6 hours
Procedure: as §1, §2

[4] = biological target: T2, CDK8 (Mus musculus, UniProt Q8R3L8); assay: Enzyme degradation assay (western blot), CDK8 level in MC38 colorectal cancer cells; conditions: 6 hours
T2 construct: levels of CDK8, pS727-STAT1, and actin in MC38 colorectal cancer cells; endogenous in cells; host or cells: MC38 colorectal cancer cells
T2 sequence (Q8R3L8 1-464): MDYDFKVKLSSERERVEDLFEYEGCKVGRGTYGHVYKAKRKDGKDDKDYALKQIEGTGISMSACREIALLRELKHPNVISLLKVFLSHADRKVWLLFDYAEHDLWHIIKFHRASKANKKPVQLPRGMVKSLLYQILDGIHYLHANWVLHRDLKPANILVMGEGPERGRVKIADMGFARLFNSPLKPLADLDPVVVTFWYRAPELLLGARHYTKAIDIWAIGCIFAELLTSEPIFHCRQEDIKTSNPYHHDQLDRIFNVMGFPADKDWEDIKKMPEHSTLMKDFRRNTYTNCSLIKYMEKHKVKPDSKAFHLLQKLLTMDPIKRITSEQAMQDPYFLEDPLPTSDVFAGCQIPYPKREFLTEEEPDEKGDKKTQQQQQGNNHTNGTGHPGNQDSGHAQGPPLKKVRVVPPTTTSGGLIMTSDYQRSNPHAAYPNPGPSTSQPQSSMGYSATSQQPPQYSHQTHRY
T2 sequence (Q62447 1-283 partner): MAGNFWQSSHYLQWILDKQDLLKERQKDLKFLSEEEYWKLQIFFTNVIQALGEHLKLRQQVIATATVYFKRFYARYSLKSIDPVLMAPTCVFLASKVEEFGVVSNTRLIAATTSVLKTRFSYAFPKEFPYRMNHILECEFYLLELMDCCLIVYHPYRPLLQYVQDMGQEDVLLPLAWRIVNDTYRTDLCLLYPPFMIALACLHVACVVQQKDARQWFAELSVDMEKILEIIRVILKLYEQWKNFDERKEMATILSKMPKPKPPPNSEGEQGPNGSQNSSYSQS
T2 sequence (Q8C7D2 1-445 partner): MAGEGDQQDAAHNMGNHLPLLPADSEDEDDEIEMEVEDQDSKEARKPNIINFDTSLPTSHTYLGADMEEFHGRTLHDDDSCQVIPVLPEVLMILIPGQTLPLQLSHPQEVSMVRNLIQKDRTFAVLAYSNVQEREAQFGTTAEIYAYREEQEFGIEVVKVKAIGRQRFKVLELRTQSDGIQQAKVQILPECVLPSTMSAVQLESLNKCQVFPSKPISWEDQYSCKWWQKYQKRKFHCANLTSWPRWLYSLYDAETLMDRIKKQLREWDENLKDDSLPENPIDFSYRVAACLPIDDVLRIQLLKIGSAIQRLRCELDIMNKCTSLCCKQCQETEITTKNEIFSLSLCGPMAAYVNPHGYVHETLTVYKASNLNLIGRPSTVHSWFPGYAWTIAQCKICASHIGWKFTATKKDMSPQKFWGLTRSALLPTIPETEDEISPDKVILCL
Procedure: as §1
Cells are treated with a control or a bifunctional compound of the application at various concentrations for a desired period of time. Cells are then lysed in a suitable buffer. Protein concentration may be measured with any appropriate assay known in the art. […] The signals from the label are detected.
The indicated cells were treated with vehicle control or the bifunctional compounds of the application, at a single or various concentrations, alone or in combination with bortezomib, an agent that blocks proteasomal degradation. […] Protein concentrations were determined by BCA assay, and equal amounts of protein were loaded onto gels to perform Western blots. […] Antibody binding was detected using near-infrared-dye-conjugated secondary antibodies. […]

[5] = 1 μM compound in combination with 10 nM bortezomib

SMILES | phosphorylation of Ser727-STAT1 [1] | degradation of CDK8 (western blot level of CDK8) [2] | reduction in the level of pSer727-STAT1 when the proteasome is inhibited with bortezomib [3, 5] | level of phosphorylation of the CDK8 substrate Ser727-STAT1 ([3]; 1 μM compound, alone) | degradation of CDK8 when the proteasome is inhibited with bortezomib [4, 5] | degradation of CDK8 (western blot level of CDK8) ([4]; 1 μM compound, alone)
O=C1CCC(N2C(=O)c3cccc(NCCOCCOCCOCCOCCOCCC(=O)N4CCN(c5ccc(-n6c(=O)ccc7cnc8ccc(-c9ccc%10ccncc%10c9)cc8c76)cc5C(F)(F)F)CC4)c3C2=O)C(=O)N1 (centres unmarked) [Compound I-3, 2-(2,6-dioxopiperidin-3-yl)-4-((18-(4-(4-(9-(isoquinolin-7-yl)-2-oxobenzo[h][1,6]naphthyridin-1(2H)-yl)-2-(trifluoromethyl)phenyl)piperazin-1-yl)-18-oxo-3,6,9,12,15-pentaoxaoctadecyl)amino)isoindoline-1,3-dione] | blocked phosphorylation | efficiently degraded CDK8 | rescued | lowered the level of phosphorylation | rescued | efficiently degraded CDK8
O=C1CCC(N2C(=O)c3cccc(NCCCCn4cc(-c5ccc(-c6cncc(Cl)c6N6CCC7(CCNC7=O)CC6)cc5)cn4)c3C2=O)C(=O)N1 (centres unmarked) [Compound I-6, 4-(4-(4-(4-(5-chloro-4-(1-oxo-2,8-diazaspiro[4.5]decan-8-yl)pyridin-3-yl)phenyl)-1H-pyrazol-1-yl)butylamino)-2-(2,6-dioxopiperidin-3-yl)isoindoline-1,3-dione] | blocked phosphorylation | efficiently degraded CDK8 | – | – | – | –
